Positions of bridges follow the written chain, without caps; N, C: chain ends. Residues, ends and D or L forms follow the SMILES beside them.
Columns and labels:
NaV1.3 = NaV1.3 (Homo sapiens, UniProt Q9NY46); assay: Slowing of fast inactivation of NaV1.3; type: cell-based
Protocol: Sodium channel currents were recorded from HEK293 cells expressing human NaV isoforms together with the β1 auxiliary subunit (SB Drug Discovery, Glasgow, UK) using the QPatch 16X automated whole-cell patch-clamp platform (Sophion Bioscience A/S, Ballerup, Denmark). The external recording solution contained (in mM) the following: 140 NaCl, 3 KCl, 1 CaCl2, 1 MgCl2, 0.1 CdCl2, 20 tetraethylammonium chloride (TEA-Cl), and 5 HEPES; pH was adjusted to 7.3 and osmolarity to 320 mOsm. The internal (pipette) solution consisted of (in mM) the following: 140 CsF, 10 NaCl, 10 HEPES, and 1/5 EGTA/CsOH, also adjusted to pH 7.3 and 320 mOsm. Cells were voltage-clamped at a holding potential of −80 mV, and inward Na^+ currents were evoked by 20 ms depolarizing pulses to 0 mV following a 200 ms hyperpolarizing prepulse to −120 mV. To obtain concentration–response curves, cells at holding potential were incubated for 5 min with increasing concentrations of Oa1a peptides. For determining the potency of Oa1a peptides to inhibit peak current, the maximum peak current within the 20 ms at 0 mV was measured. For determining the potency of Oa1a-NH2 to slow fast inactivation, peak current values were measured at 20 ms of the 0 mV depolarization step. Ion currents (INa) were plotted as I/Imax, where I = current value and Imax = highest current value within the experiment.
(§1) For calcium influx experiments, bioactivity comparisons between venom fractions and controls were based on the difference between the maximal and minimal fluorescence intensity values obtained from single-replicate assays. Electrophysiological data analysis was conducted using GraphPad Prism (version 8; GraphPad Software, San Diego, CA, USA). Nonlinear regression was applied to fit the concentration–response relationships using a variable Hill slope: log(inhibitor) versus normalized response for determining IC50 values, and log(agonist) versus normalized response for EC50 calculations. Reversibility and dissociation kinetics were analyzed by fitting data with a single-phase exponential decay model, while voltage-dependence of steady-state activation and inactivation parameters were derived from Boltzmann sigmoid fits of normalized conductance (G/Gmax) or current (I/Imax) values to determine the half-activation or half-inactivation voltages (V50). Data are expressed as mean ± SEM, where n represents the number of individual cells analyzed.

hNaV1.1 to hNaV1.7 = assay: NaV subtype preference across NaV1.1 to NaV1.7, patch clamp; type: cell-based, human; settings: NaV1.1 to NaV1.7, closed-state voltage protocol
Protocol: Unless otherwise specified, all cell culture reagents were obtained from Life Technologies (Carlsbad, CA, USA). The human neuroblastoma cell line SH-SY5Y (ATCC CRL-2266; Manassas, VA, USA) was maintained in RPMI medium supplemented with 15% fetal bovine serum (FBS) and 2 mM L-glutamine. HEK293 cells stably expressing human NaV channel isoforms together with the β1 auxiliary subunit (SB Drug Discovery, Glasgow, UK) were propagated in Minimal Essential Medium (MEM; Sigma-Aldrich, St. Louis, MO, USA) containing 10% FBS, 100 U/mL penicillin, 100 µg/mL streptomycin, 2 mM L-glutamine, and selective antibiotics (blasticidin, geneticin, and zeocin) at concentrations recommended by the supplier. HEK293T cells expressing the human CaV3.2 channel (a generous gift from Prof. Emmanuel Bourinet, Institut de Génomique Fonctionnelle, Université de Montpellier, France, and Prof. Edward Perez-Reyes, University of Virginia School of Medicine, USA) were grown in Dulbecco’s MEM supplemented with 10% FBS, 100 U/mL penicillin, 100 µg/mL streptomycin, and 750 µg/mL geneticin.
Sodium channel currents were recorded from HEK293 cells expressing human NaV isoforms together with the β1 auxiliary subunit (SB Drug Discovery, Glasgow, UK) using the QPatch 16X automated whole-cell patch-clamp platform (Sophion Bioscience A/S, Ballerup, Denmark). The external recording solution contained (in mM) the following: 140 NaCl, 3 KCl, 1 CaCl2, 1 MgCl2, 0.1 CdCl2, 20 tetraethylammonium chloride (TEA-Cl), and 5 HEPES; pH was adjusted to 7.3 and osmolarity to 320 mOsm. The internal (pipette) solution consisted of (in mM) the following: 140 CsF, 10 NaCl, 10 HEPES, and 1/5 EGTA/CsOH, also adjusted to pH 7.3 and 320 mOsm. […] For determining the potency of Oa1a peptides to inhibit peak current, the maximum peak current within the 20 ms at 0 mV was measured. For determining the potency of Oa1a-NH2 to slow fast inactivation, peak current values were measured at 20 ms of the 0 mV depolarization step. […]
as §1, with “Electrophysiological data analysis was conducted using GraphPad Prism (version 8; GraphPad Software, San Diego, CA, USA). Nonlinear regression was applied to fit the concentration–response relationships using a variable Hill slope: log(inhibitor) versus normalized response for determining IC50 values, and log(agonist) versus normalized response for EC50 calculations.” left out

Sequence of NaV1.3 (Q9NY46 whole entry, canonical isoform): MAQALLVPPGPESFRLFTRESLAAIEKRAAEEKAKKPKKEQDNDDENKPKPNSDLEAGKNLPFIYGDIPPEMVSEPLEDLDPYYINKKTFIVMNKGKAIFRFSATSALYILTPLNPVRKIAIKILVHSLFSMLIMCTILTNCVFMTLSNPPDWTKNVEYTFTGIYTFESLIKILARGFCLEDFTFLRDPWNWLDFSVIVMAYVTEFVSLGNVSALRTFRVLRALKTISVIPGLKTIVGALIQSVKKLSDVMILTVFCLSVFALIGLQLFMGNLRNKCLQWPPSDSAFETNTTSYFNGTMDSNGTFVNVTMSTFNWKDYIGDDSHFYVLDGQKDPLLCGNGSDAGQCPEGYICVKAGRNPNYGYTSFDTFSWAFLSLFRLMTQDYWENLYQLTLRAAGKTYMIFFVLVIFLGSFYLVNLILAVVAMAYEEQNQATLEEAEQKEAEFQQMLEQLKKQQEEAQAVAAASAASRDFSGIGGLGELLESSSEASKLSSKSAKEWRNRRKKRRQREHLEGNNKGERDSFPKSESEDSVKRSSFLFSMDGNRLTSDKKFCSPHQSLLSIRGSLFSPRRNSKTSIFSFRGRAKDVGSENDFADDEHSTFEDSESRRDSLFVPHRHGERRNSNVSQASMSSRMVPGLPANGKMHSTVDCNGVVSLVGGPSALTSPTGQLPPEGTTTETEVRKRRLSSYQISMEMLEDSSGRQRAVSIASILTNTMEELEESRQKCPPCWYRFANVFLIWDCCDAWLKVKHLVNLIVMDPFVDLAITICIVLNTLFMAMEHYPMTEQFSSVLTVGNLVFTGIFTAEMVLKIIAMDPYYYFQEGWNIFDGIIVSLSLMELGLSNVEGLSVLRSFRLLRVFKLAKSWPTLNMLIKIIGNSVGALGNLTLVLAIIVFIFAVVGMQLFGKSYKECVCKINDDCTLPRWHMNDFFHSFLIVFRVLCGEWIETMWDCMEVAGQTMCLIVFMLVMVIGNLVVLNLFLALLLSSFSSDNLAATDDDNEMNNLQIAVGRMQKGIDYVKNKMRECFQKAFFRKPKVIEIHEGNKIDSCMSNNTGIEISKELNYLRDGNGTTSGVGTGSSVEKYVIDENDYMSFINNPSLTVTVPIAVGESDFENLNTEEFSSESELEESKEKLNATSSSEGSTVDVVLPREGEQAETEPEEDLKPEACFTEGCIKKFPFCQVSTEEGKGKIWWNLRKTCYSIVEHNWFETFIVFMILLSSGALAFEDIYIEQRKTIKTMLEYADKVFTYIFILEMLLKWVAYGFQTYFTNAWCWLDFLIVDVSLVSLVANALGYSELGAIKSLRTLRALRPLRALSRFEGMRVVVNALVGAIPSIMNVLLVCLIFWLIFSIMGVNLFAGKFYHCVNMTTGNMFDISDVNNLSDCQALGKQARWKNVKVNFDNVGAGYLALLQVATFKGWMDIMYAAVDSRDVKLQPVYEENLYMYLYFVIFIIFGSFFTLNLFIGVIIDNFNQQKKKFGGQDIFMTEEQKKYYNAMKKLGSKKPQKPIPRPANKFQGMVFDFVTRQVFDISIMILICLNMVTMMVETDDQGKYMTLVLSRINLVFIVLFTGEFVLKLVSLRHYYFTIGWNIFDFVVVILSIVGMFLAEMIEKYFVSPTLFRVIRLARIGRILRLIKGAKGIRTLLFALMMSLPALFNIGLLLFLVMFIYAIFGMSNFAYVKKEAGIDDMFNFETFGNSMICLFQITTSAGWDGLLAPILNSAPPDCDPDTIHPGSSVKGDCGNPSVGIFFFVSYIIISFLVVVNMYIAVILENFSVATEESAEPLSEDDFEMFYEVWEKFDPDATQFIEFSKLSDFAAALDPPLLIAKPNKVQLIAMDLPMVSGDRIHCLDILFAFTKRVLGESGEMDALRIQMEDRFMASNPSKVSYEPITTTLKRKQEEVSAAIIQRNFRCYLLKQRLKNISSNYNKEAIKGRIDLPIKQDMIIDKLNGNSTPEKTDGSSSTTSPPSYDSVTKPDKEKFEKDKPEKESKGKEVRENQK
Sequence of NaV1.3 (Q07699 19-218, further chain): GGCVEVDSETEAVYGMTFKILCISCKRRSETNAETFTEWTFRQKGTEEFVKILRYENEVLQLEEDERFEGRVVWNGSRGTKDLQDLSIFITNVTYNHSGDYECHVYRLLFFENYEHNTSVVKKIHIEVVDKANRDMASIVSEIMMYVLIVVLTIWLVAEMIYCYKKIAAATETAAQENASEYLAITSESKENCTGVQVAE

## CC(C)C[C@@H]1NC(=O)[C@H](Cc2ccccc2)NC(=O)[C@H](Cc2ccc(O)cc2)NC(=O)[C@H](CCCNC(=N)N)NC(=O)[C@@H](NC(=O)[C@H](CCC(=O)O)NC(=O)CN)CSSC[C@@H]2NC(=O)[C@@H]3CSSC[C@@H](C(=O)N[C@H](C(=O)N[C@@H](Cc4c[nH]c5ccccc45)C(=O)N[C@@H](CC(=O)O)C(=O)N[C@@H](Cc4c[nH]c5ccccc45)C(=O)N[C@H](C(=O)N[C@@H](Cc4ccccc4)C(=O)O)[C@@H](C)O)C(C)C)NC(=O)[C@H](Cc4c[nH]c5ccccc45)NC(=O)[C@H](CCC(N)=O)NC(=O)[C@H](Cc4c[nH]cn4)NC(=O)[C@H](CCCCN)NC(=O)[C@H](CC(N)=O)NC(=O)[C@H](Cc4c[nH]cn4)NC(=O)[C@H](CSSC[C@H](NC(=O)CNC(=O)CNC1=O)C(=O)N[C@@H](CO)C(=O)N[C@@H](CCC(N)=O)C(=O)NCC(=O)N[C@@H](CCC(=O)O)C(=O)N[C@@H](CCCCN)C(=O)N3)NC(=O)[C@H](C(C)C)NC(=O)[C@H](CC(C)C)NC(=O)[C@H](Cc1c[nH]cn1)NC(=O)[C@H](CCC(=O)O)NC2=O [rOa1a] (H-GECRYFLGGCSQGEKCCEHLVCHNKHQWCVWDWTF-OH; disulfide 3-17, 10-22, 16-29; N-terminus and C-terminus assumed)
NaV1.3; closed-state voltage protocol, current traces, concentrations up to those of IC50 curves
  Slowing of fast inactivation of NaV1.3 (in words): strongly slowing the fast inactivation of NaV1.3
NaV1.3; ratio of EC50 values
  Fold less potency in slowing fast inactivation of NaV1.3 compared to sOa1a-NH2: 4.8 fold
hNaV1.1 to hNaV1.7
  NaV subtype preference of inhibition (in words): preference for inhibiting NaV1.2, NaV1.3, NaV1.6, and NaV1.7
hNaV1.1 to hNaV1.7; listed as recombinant Oa1a
  NaV subtype preference of inhibition (in words): preference for inhibiting NaV1.2, NaV1.6, and NaV1.7
